For data set [1], the target named is T1, Apelin receptor (Homo sapiens) (UniProt P35414).
T1 sequence (whole entry): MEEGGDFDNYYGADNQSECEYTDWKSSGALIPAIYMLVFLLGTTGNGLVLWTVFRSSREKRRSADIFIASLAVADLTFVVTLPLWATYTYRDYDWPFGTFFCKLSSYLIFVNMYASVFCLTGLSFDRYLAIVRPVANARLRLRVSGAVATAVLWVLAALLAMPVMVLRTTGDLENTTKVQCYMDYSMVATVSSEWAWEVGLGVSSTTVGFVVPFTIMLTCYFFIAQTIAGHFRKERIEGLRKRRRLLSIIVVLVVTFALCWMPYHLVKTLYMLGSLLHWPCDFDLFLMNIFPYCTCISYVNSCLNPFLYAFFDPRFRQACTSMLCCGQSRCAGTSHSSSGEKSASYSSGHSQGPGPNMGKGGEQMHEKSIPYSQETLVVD
Description: Agonist activity at human APJ expressed in HEK293 cells assessed as maximal efficacy for dissociation of G alphai1 from the G beta gamma subunit by BRET-based G protein dissociation assay relative to control. Format: functional, cell-based. As to conditions: filed as agonist. On the technique in general: BRET reads energy transfer from a luciferase to a nearby fluorophore.

The target in data set [2] is T1, Apelin receptor (Homo sapiens). Description: Agonist activity at human APJ expressed in HEK293 cell membrane assessed as maximal efficacy for recruitment of PDZ-RhoGEF Galphai1 to cell membrane by BRET-based G protein dissociation assay relative to control. The data set is classed as functional. The note with it: filed as agonist.
Data set [3] has the same target. Description: Agonist activity at human APJ expressed in HEK293 cell membrane assessed as maximal efficacy for recruitment of beta-arrestin2 to receptor by BRET-based beta-arrestin2 assay relative to control. Format: functional. As to conditions: filed as agonist.
The next data set deals with Rattus norvegicus. Description: Hypotensive effect in Sprague-Dawley rat assessed as decrease in blood pressure at 19.6 to 65 nmol/kg, iv relative to control. As to conditions: dose 19.6-65 nmol/kg. The data set is classed as functional.
A further data set deals with T2, Apelin receptor (Homo sapiens, UniProt P35414).
T2 sequence (P35414 whole entry): T1 sequence (whole entry)
Description: Displacement of [125I]-[Nle75,Tyr77][Pyr1]-Ape13 from YFP-tagged human APJ expressed in HEK293 cell membranes assessed as inhibition constant incubated for 1 hr by scintillation counting method.

A short description of data set [4]: Stability in Sprague-Dawley rat plasma assessed as half life measured upto 24 hrs by UPLC-MS analysis. The data set is classed as ADME, cell-free.

pKi: −log10 of the molar value. Bridge positions count the residues as written; N and C are the ends. Square brackets hold non-standard residues; d marks the D form. Peptide text beside a SMILES is read from it. AllylGly = C=CC[C@H](N)C(=O)O; Nle = CCCC[C@H](N)C(=O)O; Ava = NCCCCC(=O)O Bounds are passed on as bounds.

The values below come from ChEMBL document CHEMBL5038644 (J Med Chem, 2022).

As a reminder, the Emax is the size of the effect at its maximum, as opposed to the concentration needed. As a reminder, the pKi is the negative decadic logarithm of the Ki, by convention in mol/L. The half-life is how long it takes for the measured level to halve.

In the case of `CCCC[C@H](NC(=O)[C@@H]1CCCN1C(=O)CNC(=O)[C@H](CCCCN)NC(=O)[C@@H]1CCNC/C=C/C[C@H](NC(=O)[C@H](CCCNC(=N)N)NC(=O)[C@@H]2CCC(=O)N2)C(=O)N[C@@H](CCCNC(=N)N)C(=O)N[C@@H](CC(C)C)C(=O)N[C@@H](CO)C(=O)N1)C(=O)N1CCC[C@H]1C(=O)N[C@@H](Cc1ccccc1)C(=O)O`, the Emax in data set [1] turned out to be 100%; in data set [2], 95%; in data set [3], 86%.
As for `CCCC[C@H](NC(=O)[C@@H]1CCCN1C(=O)CNC(=O)[C@H](CCCCN)NC(=O)[C@@H]1C/C=C\C[C@H](N)C(=O)N[C@@H](CCCNC(=N)N)C(=O)N[C@@H](CC(C)C)C(=O)N[C@@H](CO)C(=O)N1)C(=O)O`, the Activity in the data set on Rattus norvegicus is recorded as -13 mmHg. The Emax in data set [1] was determined as 99%; in data set [2] it was 59%; in data set [3], 69%.
As for `CC(C)C[C@@H]1NC(=O)[C@H](CCCNC(=N)N)NC(=O)[C@@H](N)C/C=C\C[C@@H](C(=O)N[C@@H](CCCCN)C(=O)NCC(=O)N2CCC[C@H]2C(=O)N[C@H](Cc2ccc(OCc3ccccc3)cc2)C(=O)O)NC(=O)[C@H](CO)NC1=O`, the Emax in data set [1] was 104%; in data set [2] it was 48%; in data set [3], 78%.
Consider `CCCC[C@H](NC(=O)[C@@H]1CCCN1C(=O)CCCCNC(=O)[C@@H]1C/C=C\C[C@H](N)C(=O)N[C@@H](CCCNC(=N)N)C(=O)N[C@@H](CC(C)C)C(=O)N[C@@H](CO)C(=O)N1)C(=O)O` (H-[AllylGly]RLS[AllylGly][Ava]P[Nle]-OH; staple (Z) 1-5), for which the pKi at Apelin receptor was below 5.00.
For the compound `CCCC[C@H](NC(=O)[C@@H]1CCCN1C(=O)CNC(=O)[C@H](CCCCN)NC(=O)[C@@H]1Cc2cncn2C/C=C/C[C@H](NC(=O)[C@H](CCCNC(=N)N)NC(=O)[C@@H]2CCC(=O)N2)C(=O)N[C@@H](CCCNC(=N)N)C(=O)N[C@@H](CC(C)C)C(=O)N[C@@H](CO)C(=O)N1)C(=O)N1CCC[C@H]1C(=O)N[C@@H](Cc1ccccc1)C(=O)O`, the Activity in the data set on Rattus norvegicus is -36 mmHg. The Emax in data set [1] came out at 99%; in data set [2], 98%; in data set [3] it was 115%.
With `CCCC[C@H](NC(=O)[C@@H]1CCCN1C(=O)CNC(=O)[C@H](CCCCN)NC(=O)[C@@H]1CCN(C)C/C=C/C[C@H](NC(=O)[C@H](CCCNC(=N)N)NC(=O)[C@@H]2CCC(=O)N2)C(=O)N[C@@H](CCCNC(=N)N)C(=O)N[C@@H](CC(C)C)C(=O)N[C@@H](CO)C(=O)N1)C(=O)N1CCC[C@H]1C(=O)N[C@@H](Cc1ccccc1)C(=O)O`, the maximal response (Emax) was determined as 102% in data set [1], 97% in data set [2] and 90% in data set [3].
As to `CCCC[C@H](NC(=O)[C@@H]1CCCN1C(=O)CNC(=O)[C@H](CCCCN)NC(=O)[C@@H]1CCN(S(=O)(=O)c2ccccc2[N+](=O)[O-])C/C=C/C[C@H](NC(=O)[C@H](CCCNC(=N)N)NC(=O)[C@@H]2CCC(=O)N2)C(=O)N[C@@H](CCCNC(=N)N)C(=O)N[C@@H](CC(C)C)C(=O)N[C@@H](CO)C(=O)N1)C(=O)N1CCC[C@H]1C(=O)N[C@@H](Cc1ccccc1)C(=O)O`, the values for the Emax in data set [1], in data set [2] and in data set [3] were 102%, 92% and 98%, respectively.
The corresponding values for `CCCC[C@H](NC(=O)[C@@H]1CCCN1C(=O)CNC(=O)[C@H](CCCCN)NC(=O)[C@@H]1CCN(S(=O)(=O)c2ccccc2[N+](=O)[O-])C/C=C/C[C@H](N)C(=O)N[C@@H](CCCNC(=N)N)C(=O)N[C@@H](CC(C)C)C(=O)N[C@@H](CO)C(=O)N1)C(=O)N1CCC[C@H]1C(=O)N[C@@H](Cc1ccccc1)C(=O)O` are 106%, 93% and 82%.
Regarding `CCCC[C@H](NC(=O)[C@@H]1CCCN1C(=O)CNC(=O)[C@H](CCCCN)NC(=O)[C@@H]1C/C=C\C[C@H](NC(=N)N)C(=O)N[C@@H](CCCNC(=N)N)C(=O)N[C@@H](CC(C)C)C(=O)N[C@@H](CO)C(=O)N1)C(=O)N1CCC[C@H]1C(=O)N[C@@H](Cc1ccccc1)C(=O)O`, the Emax in data set [1] is 103%; in data set [2], 105%; in data set [3], 92%.
In the same order, the values of `CC(C)C[C@@H]1NC(=O)[C@H](CCCNC(=N)N)NC(=O)[C@@H](N)C/C=C\C[C@@H](C(=O)N[C@@H](CCCCN)C(=O)NCC(=O)N2CCC[C@H]2C(=O)N[C@H](Cc2ccc(O)cc2)C(=O)O)NC(=O)[C@H](CO)NC1=O` are 100%, 45% and 54%.
On to `C=CC[C@H](NC(=O)[C@H](CO)NC(=O)[C@H](CC(C)C)NC(=O)[C@H](CCCNC(=N)N)NC(=O)[C@@H](N)CC=C)C(=O)N[C@@H](CCCCN)C(=O)NCC(=O)N1CCC[C@H]1C(=O)N[C@@H](CCCC)C(=O)N1CCC[C@H]1C(=O)N[C@@H](Cc1ccccc1)C(=O)O`, for which the pKi at Apelin receptor is 6.77. In addition, in data set [4], the half-life was 6 min.
Turning to `CCCC[C@H](NC(=O)[C@@H]1CCCN1C(=O)CNC(=O)[C@H](CCCCN)NC(=O)[C@@H]1CC(=O)NCCCC[C@H](NC(=O)[C@H](CCCNC(=N)N)NC(=O)[C@@H]2CCC(=O)N2)C(=O)N[C@@H](CCCNC(=N)N)C(=O)N[C@@H](CC(C)C)C(=O)N[C@@H](CO)C(=O)N1)C(=O)N1CCC[C@H]1C(=O)N[C@@H](Cc1ccccc1)C(=O)O` (HELM PEPTIDE1{[Glp].R.K.R.L.S.D.K.G.P.[Nle].P.F}$PEPTIDE1,PEPTIDE1,3:R3-7:R3$$$V2.0), on Apelin receptor, the pKi was 7.41.
On to `CC(C)C[C@@H]1NC(=O)[C@H](CCCNC(=N)N)NC(=O)[C@@H](N)C/C=C\C[C@@H](C(=O)N[C@@H](CCCCN)C(=O)O)NC(=O)[C@H](CO)NC1=O` (H-[AllylGly]RLS[AllylGly]K-OH; staple (Z) 1-5), for which the pKi at Apelin receptor is below 5.00.
For the compound `CCCC[C@H](NC(=O)[C@@H]1CCCN1C(=O)CNC(=O)[C@H](CCCCN)NC(=O)[C@@H]1C/C=C\C[C@H](N)C(=O)N[C@@H](CCCNC(=N)N)C(=O)N[C@@H](CC(C)C)C(=O)N[C@@H](CO)C(=O)N1)C(=O)N1CCC[C@H]1C(=O)N[C@@H](Cc1ccccc1)C(=O)O`, the Activity with Rattus norvegicus is listed as -27 mmHg. The Emax in data set [1] amounted to 100%; in data set [2] it was 98%; in data set [3], 98%.
Turning to `CCCC[C@H](NC(=O)[C@@H]1CCCN1C(=O)CNC(=O)[C@H](CCCCN)NC(=O)[C@@H]1C/C=C\C[C@H](NC(=O)[C@H](CCCNC(=N)N)NC(=O)[C@@H]2CCC(=O)N2)C(=O)N[C@@H](CCCNC(=N)N)C(=O)N[C@@H](CC(C)C)C(=O)N[C@@H](CO)C(=O)N1)C(=O)N1CCC[C@H]1C(=O)N[C@@H](Cc1ccccc1)C(=O)O`, the results for the maximal effect (Emax) in data set [1], in data set [2] and in data set [3] were 101%, 98% and 98%, respectively.
In the case of `CCCC[C@H](NC(=O)[C@@H]1CCCN1C(=O)CNC(=O)[C@@H]1C/C=C\C[C@H](N)C(=O)N[C@@H](CCCNC(=N)N)C(=O)N[C@@H](CC(C)C)C(=O)N[C@@H](CO)C(=O)N1)C(=O)O` (H-[AllylGly]RLS[AllylGly]GP[Nle]-OH; staple (Z) 1-5), the pKi on Apelin receptor is below 5.00.
The same measure, in the same setting: with `CC(C)C[C@@H]1NC(=O)[C@H](CCCNC(=N)N)NC(=O)[C@@H](N)C/C=C\C[C@@H](C(=O)N[C@@H](CCCCN)C(=O)NCC(=O)N2CCC[C@H]2C(=O)N[C@@H](C)C(=O)O)NC(=O)[C@H](CO)NC1=O` (H-[AllylGly]RLS[AllylGly]KGPA-OH; staple (Z) 1-5) the figure was below 5.00.
